{"source": "patent US11446287B2", "about": "“Compounds and methods for EP300 or CBP modulation and indications therefor” (Opna Immuno-Oncology SA, priority 2019, dated 2022)", "note": "pIC50: −log10 of the molar value.", "data": [{"biological_target": "T1, Recombinant human EP300 containing the bromodomain (EP300-BD (1040-1161)) (Homo sapiens, UniProt Q09472)", "T1 construct": "Recombinant human EP300 bromodomain (EP300-BD (1040-1161)); made in house; host or cells: E. coli BL21-CodonPlus (DE3), modified pET vector", "T1 sequence (Q09472 1040-1161)": "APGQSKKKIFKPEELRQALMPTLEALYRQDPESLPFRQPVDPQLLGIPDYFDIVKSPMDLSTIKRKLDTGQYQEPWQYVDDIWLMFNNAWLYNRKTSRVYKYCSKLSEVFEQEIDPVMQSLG", "experiment": "EP300 Alphascreen binding assay", "outline": "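Displacement of a biotinylated acetyl-K56 histone H3 peptide from the N-His bromodomain construct (1040-1161) measured by AlphaScreen proximity, beads at 7.5 μg/ml final, read 60 min after addition. Protein, peptide and compound first incubated 1 h at room temperature, pH 7.5 HEPES buffer; IC50 by four-parameter logistic fit.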", "values": [{"smiles": "Cc1noc(C)c1-c1cnc2c(-c3cnn(C)c3)c(C(F)(F)F)n([C@@H](C)c3ccccn3)c2c1", "note": "[P-0160, (S)-3,5-dimethyl-4-(3-(1-methyl-1H-pyrazol-4-yl)-1-(1-(pyridin-2-yl)ethyl)-2-(trifluoromethyl)-1H-pyrrolo[3,2-b]pyridin-6-yl)isoxazole]", "pIC50": "6.00 to 10.00"}, {"smiles": "Cc1noc(C)c1-c1cnc2c(-c3cccc(CC(=O)O)c3)c(C(F)(F)F)n([C@@H](C)c3ccccn3)c2c1", "note": "[P-0161, (S)-2-(3-(6-(3,5-dimethylisoxazol-4-yl)-1-(1-(pyridin-2-yl)ethyl)-2-(trifluoromethyl)-1H-pyrrolo[3,2-b]pyridin-3-yl)phenyl)acetic acid]", "pIC50": "6.00 to 10.00"}, {"smiles": "Cc1noc(C)c1-c1cnc2c(-c3cccc(C(=O)O)c3)c(C(F)(F)F)n([C@@H](C)c3ccccn3)c2c1", "note": "[P-0162, (S)-3-(6-(3,5-dimethylisoxazol-4-yl)-1-(1-(pyridin-2-yl)ethyl)-2-(trifluoromethyl)-1H-pyrrolo[3,2-b]pyridin-3-yl)benzoic acid]", "pIC50": "6.00 to 10.00"}, {"smiles": "Cc1noc(C)c1-c1cnc2c(C(O)(C3CC3)C3CC3)cn(-c3ccc(C(=O)O)cc3OC(F)(F)F)c2c1", "note": "[P-0163, 4-(3-(dicyclopropyl(hydroxy)methyl)-6-(3,5-dimethylisoxazol-4-yl)-1H-pyrrolo[3,2-b]pyridin-1-yl)-3-(trifluoromethoxy)benzoic acid]", "pIC50": "6.00 to 10.00"}, {"smiles": "Cc1noc(C)c1-c1cnc2c(-c3cc(C(=O)O)ccc3Cl)cn(C(C)(c3ccccn3)c3ccccn3)c2c1", "note": "[P-0164, 4-chloro-3-(1-(1,1-di(pyridin-2-yl)ethyl)-6-(3,5-dimethylisoxazol-4-yl)-1H-pyrrolo[3,2-b]pyridin-3-yl)benzoic acid]", "pIC50": "6.00 to 10.00"}, {"smiles": "CCOc1cc(C(=O)O)cc(OCC)c1-n1cc(C(O)(C2CC2)C2CC2)c2ncc(-c3c(C)noc3C)cc21", "note": "[P-0165, 4-(3-(dicyclopropyl(hydroxy)methyl)-6-(3,5-dimethylisoxazol-4-yl)-1H-pyrrolo[3,2-b]pyridin-1-yl)-3,5-diethoxybenzoic acid]", "pIC50": "6.00 to 10.00"}, {"smiles": "Cc1noc(C)c1-c1cnc2c(-c3cc(C(=O)O)ccc3C#N)cn(C(C)(c3ccccn3)c3ccccn3)c2c1", "note": "[P-0166, 4-cyano-3-(1-(1,1-di(pyridin-2-yl)ethyl)-6-(3,5-dimethylisoxazol-4-yl)-1H-pyrrolo[3,2-b]pyridin-3-yl)benzoic acid]", "pIC50": "6.00 to 10.00"}, {"smiles": "C#Cc1ccccc1-c1cn(C(C)(c2ccccn2)c2ccccn2)c2cc(-c3c(C)noc3C)cnc12", "note": "[P-0167, 4-(1-(1,1-di(pyridin-2-yl)ethyl)-3-(2-ethynylphenyl)-1H-pyrrolo[3,2-b]pyridin-6-yl)-3,5-dimethylisoxazole]", "pIC50": "6.00 to 10.00"}, {"smiles": "CCOc1cc(C(=O)O)cc(OCC)c1-n1cc(-c2ccccc2)c2ncc(-c3c(C)noc3C)cc21", "note": "[P-0168, 4-(6-(3,5-dimethylisoxazol-4-yl)-3-phenyl-1H-pyrrolo[3,2-b]pyridin-1-yl)-3,5-diethoxybenzoic acid]", "pIC50": "6.00 to 10.00"}, {"smiles": "Cc1noc(C)c1-c1cnc2c(-c3ccccc3C#N)cn(C(C)(c3ccccn3)c3ccccn3)c2c1", "note": "[P-0169, 2-(1-(1,1-di(pyridin-2-yl)ethyl)-6-(3,5-dimethylisoxazol-4-yl)-1H-pyrrolo[3,2-b]pyridin-3-yl)benzonitrile]", "pIC50": "6.00 to 10.00"}]}]}
